In the NIST ThermoML archive (doi:10.1016/j.jct.2012.03.003):

Assay: xn = mol fraction of the nth substance listed
Conditions: Liquid, Vibrating tube method

COc1cc2c(cc1O)CC1c3c(cc(O)c(OC)c3-2)CCN1C (stereo not given) [boldine] + CCCO
Conditions	mass density [kg/m3]
323.11 K, 16000 kPa, x1 = 0.0112	811.88
323.11 K, 16000 kPa, x1 = 0.0142	816.47
323.11 K, 17000 kPa, x1 = 0.0112	812.65
323.11 K, 17000 kPa, x1 = 0.0142	817.24
323.11 K, 18000 kPa, x1 = 0.0112	813.42
323.11 K, 18000 kPa, x1 = 0.0142	818
323.11 K, 19000 kPa, x1 = 0.0112	814.16
323.11 K, 19000 kPa, x1 = 0.0142	818.74
323.11 K, 20000 kPa, x1 = 0.0112	814.92
323.11 K, 20000 kPa, x1 = 0.0142	819.49
323.12 K, 1000 kPa, x1 = 0.0077	792.79
323.12 K, 2000 kPa, x1 = 0.0077	793.61
323.12 K, 3000 kPa, x1 = 0.0077	794.44
323.12 K, 4000 kPa, x1 = 0.0077	795.28
323.12 K, 5000 kPa, x1 = 0.0077	796.12
323.12 K, 6000 kPa, x1 = 0.0077	796.97
323.12 K, 7000 kPa, x1 = 0.0077	797.82
323.12 K, 8000 kPa, x1 = 0.0077	798.67
323.12 K, 9000 kPa, x1 = 0.0077	799.51
323.12 K, 10000 kPa, x1 = 0.0077	800.35
323.12 K, 11000 kPa, x1 = 0.0077	801.2
323.12 K, 12000 kPa, x1 = 0.0077	802.03
323.12 K, 13000 kPa, x1 = 0.0077	802.85
323.12 K, 14000 kPa, x1 = 0.0077	803.66
323.12 K, 15000 kPa, x1 = 0.0077	804.47
323.12 K, 16000 kPa, x1 = 0.0077	805.27
323.12 K, 17000 kPa, x1 = 0.0077	806.04
323.12 K, 18000 kPa, x1 = 0.0077	806.81
323.12 K, 19000 kPa, x1 = 0.0077	807.57
323.12 K, 20000 kPa, x1 = 0.0077	808.3
323.14 K, 1000 kPa, x1 = 0.0046	788.94
323.14 K, 2000 kPa, x1 = 0.0046	789.78
323.14 K, 3000 kPa, x1 = 0.0046	790.61
323.14 K, 4000 kPa, x1 = 0.0046	791.45
323.14 K, 5000 kPa, x1 = 0.0046	792.3
323.14 K, 6000 kPa, x1 = 0.0046	793.15
323.14 K, 7000 kPa, x1 = 0.0046	794.01
323.14 K, 8000 kPa, x1 = 0.0046	794.86
323.14 K, 9000 kPa, x1 = 0.0046	795.72
323.14 K, 10000 kPa, x1 = 0.0046	796.56
323.14 K, 11000 kPa, x1 = 0.0046	797.4
323.14 K, 12000 kPa, x1 = 0.0046	798.24
323.14 K, 13000 kPa, x1 = 0.0046	799.07
323.14 K, 14000 kPa, x1 = 0.0046	799.88
323.14 K, 15000 kPa, x1 = 0.0046	800.71
323.14 K, 16000 kPa, x1 = 0.0046	801.5
323.14 K, 17000 kPa, x1 = 0.0046	802.28
323.14 K, 18000 kPa, x1 = 0.0046	803.06
323.14 K, 19000 kPa, x1 = 0.0046	803.81
323.14 K, 20000 kPa, x1 = 0.0046	804.56
333.04 K, 1000 kPa, x1 = 0.0018	774.01
333.04 K, 1000 kPa, x1 = 0.0077	784.16
333.04 K, 1000 kPa, x1 = 0.0112	790.89
333.04 K, 1000 kPa, x1 = 0.0142	795.51
333.04 K, 2000 kPa, x1 = 0.0018	774.92
333.04 K, 2000 kPa, x1 = 0.0077	785.05
333.04 K, 2000 kPa, x1 = 0.0112	791.78
333.04 K, 2000 kPa, x1 = 0.0142	796.38
333.04 K, 3000 kPa, x1 = 0.0018	775.82
333.04 K, 3000 kPa, x1 = 0.0077	785.95
333.04 K, 3000 kPa, x1 = 0.0112	792.66
333.04 K, 3000 kPa, x1 = 0.0142	797.27
333.04 K, 4000 kPa, x1 = 0.0018	776.73
333.04 K, 4000 kPa, x1 = 0.0077	786.85
333.04 K, 4000 kPa, x1 = 0.0112	793.55
333.04 K, 4000 kPa, x1 = 0.0142	798.15
333.04 K, 5000 kPa, x1 = 0.0018	777.64
333.04 K, 5000 kPa, x1 = 0.0077	787.74
333.04 K, 5000 kPa, x1 = 0.0112	794.46
333.04 K, 5000 kPa, x1 = 0.0142	799.05
333.04 K, 6000 kPa, x1 = 0.0018	778.55
333.04 K, 6000 kPa, x1 = 0.0077	788.65
333.04 K, 6000 kPa, x1 = 0.0112	795.35
333.04 K, 6000 kPa, x1 = 0.0142	799.92
333.04 K, 7000 kPa, x1 = 0.0018	779.47
